From PubChem BioAssay (NCI)
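Each compound was tested at five concentrations against cells in 96-well plates for 48 hours. Definition used: TGI = concentration required for complete inhibition of growth.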

Legend:
Experiment in all cases: NCI-60 cell line screen, 48 h
[1] = system: PC-3 prostate
[2] = system: SK-OV-3 ovarian
[3] = system: T-47D breast
[4] = system: SW-620 colon
[5] = system: SF-268 CNS
[6] = system: HOP-92 NSCLC
[7] = system: UACC-62 melanoma
[8] = system: U251 CNS
[9] = system: IGROV1 ovarian
[10] = system: LOX IMVI melanoma
[11] = system: SK-MEL-28 melanoma
[12] = system: NCI-H460 lung
[13] = system: UO-31 renal
[14] = system: CCRF-CEM leukemia
[15] = system: SK-MEL-5 melanoma
[16] = system: RXF 393 renal
[17] = system: RPMI-8226 leukemia
[18] = system: SN12C renal
[19] = system: HL-60(TB) leukemia
[20] = system: A498 renal

Compound	TGI [1] [µM]	TGI [2] [µM]	TGI [3] [µM]	TGI [4] [µM]	TGI [5] [µM]	TGI [6] [µM]	TGI [7] [µM]	TGI [8] [µM]	TGI [9] [µM]	TGI [10] [µM]	TGI [11] [µM]	TGI [12] [µM]	TGI [13] [µM]	TGI [14] [µM]	TGI [15] [µM]	TGI [16] [µM]	TGI [17] [µM]	TGI [18] [µM]	TGI [19] [µM]	TGI [20] [µM]
Brc1ccc(-c2ccc(-c3ccc(-c4ccc(Br)s4)s3)s2)s1	> 100	> 100	> 100	> 100	> 100	> 100	> 100	> 100	> 100	> 100	> 100	> 100	> 100	> 100	> 100	> 100	> 100	> 100	> 100	> 100
CC(=O)OCC1OC(O[C@@H]2C[C@H]3C(C)(C)[C@H](OC(C)=O)CC[C@]3(C)[C@H]3CC[C@@]45C[C@H](O)C[C@H](C)[C@@H]4CC=C5[C@@]32C)C(O)C(O)C1O (stereo not given in full)	10.7	22	13.7	16.6	15.6	15	16.6	10.3	9.33	4.07	19.4	12.5	26.3	13.6	8.65	6.23	6.02	15.5	3.86	15.8
CCOC(=O)c1c(Nc2ccccc2)sc2cccnc12	65	> 89.9	> 100	> 100	64.1	> 29.3	45.3	> 57.9	47.4	44.6	63	> 88.8	43.4	71.5	24.3	> 86.6	58.3	45	51.3	26.2
C/C=C1/CN2CCC34C5=CC(=O)C(c6cc7c(cc6OC)N(C)C6=C(C(=O)OC)CC8(CC)CCCN9CCC67C98)=CC5=NC23CCC1C4C(=O)OC (stereo not given)	26	30.9	29	21.8	33.1	20.8	31.1	28.6	31.9	31	31	30.1	24.6	5.99	28.5	23.3	16.6	27.7	4.22	30.2
